Measurements published in ChEMBL document CHEMBL1125524, “Adenosine A1 antagonists. 2. Structure-activity relationships on diuretic activities and protective effects against acute renal failure” (J Med Chem, 1992).

Assays:
Rattus norvegicus [1] = assay: Serum creatinine concentration measured after intraperitoneal administration of 1 mg/kg of compound to rats(vehicle 5.07+/-0.33); assay type: functional; settings: 1 mg/kg
Adenosine A2 receptor = Adenosine A2 receptor (Rattus norvegicus, UniProt P29276+P30543)
Rattus norvegicus [2] = assay: Ratio of urinary excretion value (urinary volume) in treated rats to that in control rats, at a peroral dose of 1.6 mg/Kg; assay type: functional, Urine
Rattus norvegicus [3] = assay: Ratio of sodium ion/potassium ion concentration in treated rats to that in control rats, at a peroral dose of 1.6 mg/Kg; assay type: functional
Rattus norvegicus [4] = assay: Oral diuretic activity was measured after oral administration of 1.6 mg/kg to rats(control volume is 0.79+/-0.12); assay type: functional, Urine
Rattus norvegicus [5] = assay: Oral diuretic activity was measured after oral administration of 25 mg/kg to rats(control volume is 1.00+/-0.09); assay type: functional, Urine
Rattus norvegicus [6] = assay: Ratio of urinary excretion value (Na+ concentration) in treated rats to that in control rats, at a peroral dose of 25 mg/Kg; assay type: functional, Urine
Rattus norvegicus [7] = assay: Ratio of urinary excretion value (urinary volume) in treated rats to that in control rats, at a peroral dose of 25 mg/Kg; assay type: functional, Urine
Rattus norvegicus [8] = assay: Urea nitrogen concentration measured after intraperitoneal administration of 1 mg/kg of compound to rats(vehicle 195.8+/-14.4); assay type: functional; settings: 1 mg/kg
Rattus norvegicus [9] = assay: Ratio of urinary excretion value (Na+ concentration) in treated rats to that in control rats, at a peroral dose of 1.6 mg/Kg; assay type: functional, Urine
Adenosine receptor A1 = target: T1, Adenosine receptor A1 (Cavia porcellus, UniProt P47745)
T1 sequence (P47745 whole entry): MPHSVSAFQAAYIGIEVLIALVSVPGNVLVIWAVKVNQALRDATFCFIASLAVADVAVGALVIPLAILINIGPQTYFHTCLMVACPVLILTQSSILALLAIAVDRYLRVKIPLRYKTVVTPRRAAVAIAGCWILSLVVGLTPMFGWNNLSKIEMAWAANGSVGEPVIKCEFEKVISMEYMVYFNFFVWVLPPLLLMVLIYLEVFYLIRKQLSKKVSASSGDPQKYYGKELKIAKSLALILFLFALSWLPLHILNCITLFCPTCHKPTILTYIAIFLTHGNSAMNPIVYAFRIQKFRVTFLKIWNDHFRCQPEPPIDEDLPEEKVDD
Description: Binding affinity against adenosine A1 receptor in guinea pig forebrain membranes using N6-[3H]cyclohexyladenosine as radioligand

Rattus norvegicus [10] = assay: Ratio of sodium ion/potassium ion concentration in treated rats to that in control rats, at a peroral dose of 25 mg/Kg; assay type: functional
Rattus norvegicus [11] = assay: Percent inhibition of Urea nitrogen by the compound given as ratio of UN value in treated to vehicle treated ones after intraperitoneal administration of 1 mg/kg of compound to rats(vehicle 195.8+/-14.4); assay type: functional; settings: Rattus norvegicus, ip
Rattus norvegicus [12] = assay: Effect on urinary excretion potassium and sodium after oral administration of 25 mg/kg to rats(potassium and sodium excretion in control rat is 0.180+/-0.024); assay type: functional, Urine
Rattus norvegicus [13] = organism: Rattus norvegicus; assay: animal or person; settings: ip, read-out: Inhibition, dose 1 mg/kg, route intraperitoneal
Rattus norvegicus [14] = assay: Effect on urinary excretion potassium and sodium after oral administration of 1.6 mg/kg to rats(potassium and sodium excretion in control rat is 0.105+/-0.002); assay type: functional, Urine
Rattus norvegicus [15] = assay: Oral diuretic activity was measured after oral administration of 25 mg/kg to rats(control volume is 1.00+/-0.13); assay type: functional, Urine
Rattus norvegicus [16] = assay: Effect on urinary excretion potassium and sodium after oral administration of 0.4 mg/kg to rats(potassium and sodium excretion in control rat is 0.132+/-0.010); assay type: functional, Urine
Rattus norvegicus [17] = assay: Ratio of sodium ion/potassium ion concentration in treated rats to that in control rats, at a peroral dose of 0.1 mg/Kg; assay type: functional
Rattus norvegicus [18] = assay: Ratio of urinary excretion value (Na+ concentration) in treated rats to that in control rats, at a peroral dose of 0.4 mg/Kg; assay type: functional, Urine
Rattus norvegicus [19] = assay: Oral diuretic activity was measured after oral administration of 1.6 mg/kg to rats(control volume is 0.91+/-0.08); assay type: functional, Urine
Rattus norvegicus [20] = assay: Oral diuretic activity was measured after oral administration of 0.4 mg/kg to rats(control volume is 0.83+/-0.08); assay type: functional, Urine
Rattus norvegicus [21] = assay: Effect on urinary excretion potassium and sodium after oral administration of 0.1 mg/kg to rats(potassium and sodium excretion in control rat is 0.169+/-0.018); assay type: functional, Urine
Rattus norvegicus [22] = assay: Ratio of urinary excretion value (urinary volume) in treated rats to that in control rats, at a peroral dose of 0.4 mg/Kg; assay type: functional, Urine
Rattus norvegicus [23] = assay: Ratio of urinary excretion value (Na+ concentration) in treated rats to that in control rats, at a peroral dose of 0.1 mg/Kg; assay type: functional, Urine
Rattus norvegicus [24] = assay: Urea nitrogen concentration measured after intraperitoneal administration of 1 mg/kg of compound to rats(vehicle 182.5+/-3.4); assay type: functional
Rattus norvegicus [25] = assay: Percent inhibition of Urea nitrogen by the compound given as ratio of UN value in treated to vehicle treated ones after intraperitoneal administration of 1 mg/kg of compound to rats(vehicle 182.5+/-3.4); assay type: functional; settings: ip
Rattus norvegicus [26] = assay: Serum creatinine concentration measured after intraperitoneal administration of 1 mg/kg of compound to rats(vehicle 5.43+/-0.11); assay type: functional
Rattus norvegicus [27] = assay: Ratio of urinary excretion value (urinary volume) in treated rats to that in control rats, at a peroral dose of 6.25 mg/Kg; assay type: functional, Urine
Rattus norvegicus [28] = assay: Ratio of urinary excretion value (urinary volume) in treated rats to that in control rats, at a peroral dose of 0.1 mg/Kg; assay type: functional, Urine
Rattus norvegicus [29] = assay: Effect on urinary excretion potassium and sodium after oral administration of 25 mg/kg to rats(potassium and sodium excretion in control rat is 0.129+/-0.026); assay type: functional, Urine
Rattus norvegicus [30] = assay: Ratio of sodium ion/potassium ion concentration in treated rats to that in control rats, at a peroral dose of 0.4 mg/Kg; assay type: functional
Rattus norvegicus [31] = assay: Oral diuretic activity was measured after oral administration of 0.1 mg/kg to rats(control volume is 1.10+/-0.09); assay type: functional, Urine
Rattus norvegicus [32] = assay: Percent inhibition of serum creatinine by the compound given as ratio of Cr value in treated to vehicle treated ones after intraperitoneal administration of 1 mg/kg of compound to rats(vehicle 5.43+/-0.11); assay type: functional; settings: ip
Rattus norvegicus [33] = assay: Ratio of urinary excretion value (Na+ concentration) in treated rats to that in control rats, at a peroral dose of 6.25 mg/Kg; assay type: functional, Urine
Rattus norvegicus [34] = assay: Effect on urinary excretion potassium and sodium after oral administration of 1.6 mg/kg to rats(potassium and sodium excretion in control rat is 0.193+/-0.016); assay type: functional, Urine
Rattus norvegicus [35] = assay: Oral diuretic activity was measured after oral administration of 1.6 mg/kg to rats(control volume is 0.86+/-0.09); assay type: functional, Urine
Rattus norvegicus [36] = assay: Percent inhibition of Urea nitrogen by the compound given as ratio of UN value in treated to vehicle treated ones after intraperitoneal administration of 1 mg/kg of compound to rats(vehicle 138.8+/-7.8); assay type: functional; settings: ip
Rattus norvegicus [37] = assay: Percent inhibition of Urea nitrogen by the compound given as ratio of UN value in treated to vehicle treated ones after intraperitoneal administration of 0.1 mg/kg of compound to rats(vehicle 171.3+/-6.4); assay type: functional; settings: ip
Rattus norvegicus [38] = assay: Effect on urinary excretion potassium and sodium after oral administration of 1.6 mg/kg to rats(potassium and sodium excretion in control rat is 0.174+/-0.013); assay type: functional, Urine
Rattus norvegicus [39] = assay: Urea nitrogen concentration measured after intraperitoneal administration of 0.1 mg/kg of compound to rats(vehicle 171.3+/-6.4); assay type: functional
Rattus norvegicus [40] = assay: Serum creatinine concentration measured after intraperitoneal administration of 1 mg/kg of compound to rats(vehicle 4.74+/-0.31); assay type: functional
Rattus norvegicus [41] = assay: Percent inhibition of serum creatinine by the compound given as ratio of Cr value in treated to vehicle treated ones after intraperitoneal administration of 1 mg/kg of compound to rats(vehicle 4.74+/-0.31); assay type: functional; settings: ip
Rattus norvegicus [42] = assay: Percent inhibition of serum creatinine by the compound given as ratio of Cr value in treated to vehicle treated ones after intraperitoneal administration of 0.1 mg/kg of compound to rats(vehicle 6.90+/-0.2); assay type: functional; settings: ip
Rattus norvegicus [43] = assay: Serum creatinine concentration measured after intraperitoneal administration of 0.1 mg/kg of compound to rats(vehicle 6.90+/-0.2); assay type: functional
Rattus norvegicus [44] = assay: Urea nitrogen concentration measured after intraperitoneal administration of 1 mg/kg of compound to rats(vehicle 138.8+/-7.8); assay type: functional

CCCn1c(=O)c2nc(C3CC4CCC3C4)[nH]c2n(CCC)c1=O (stereo in doubt; 19)
Cr (Rattus norvegicus [1]): 2.59 mg/dL | Ki (Adenosine A2 receptor): 440 nM | T/C (Rattus norvegicus [2]): 3.14 | Na+/K+ (Rattus norvegicus [3]): 2.04 | Urine volume (Rattus norvegicus [4]): 2.48 ml 6hr-1 100g-1 | Urine volume (Rattus norvegicus [5]): 2.54 ml 6hr-1 100g-1 | T/C (Rattus norvegicus [6]): 2.37 | T/C (Rattus norvegicus [7]): 2.54 | UN (Rattus norvegicus [8]): 101 mg/dL | T/C (Rattus norvegicus [9]): 3.22 | Ki (Adenosine receptor A1): 3.8 nM | Na+/K+ (Rattus norvegicus [10]): 1.84 | inhibition in vivo at 1 mg/kg (Rattus norvegicus [11]): 48% | Na (Rattus norvegicus [12]): 0.427 m equiv 6hr-1 100g-1 | inhibition in vivo at 1 mg/kg (Rattus norvegicus [13]): 49% | Na (Rattus norvegicus [14]): 0.337 m equiv 6hr-1 100g-1

CCCn1c(=O)c2[nH]c(C3CCCC3)nc2n(CCC)c1=O [1,3-DIPROPYL-8-CYCLOPENTYLXANTHINE [DPCPX]]
Urine volume (Rattus norvegicus [15]): 1.93 ml 6hr-1 100g-1 | Na (Rattus norvegicus [16]): 0.302 m equiv 6hr-1 100g-1 | Na+/K+ (Rattus norvegicus [17]): 1.54 | T/C (Rattus norvegicus [2]): 2.79 | Na+/K+ (Rattus norvegicus [3]): 1.57 | T/C (Rattus norvegicus [18]): 2.28 | Urine volume (Rattus norvegicus [19]): 2.54 ml 6hr-1 100g-1 | T/C (Rattus norvegicus [6]): 2.46 | T/C (Rattus norvegicus [7]): 1.93 | Urine volume (Rattus norvegicus [20]): 2.05 ml 6hr-1 100g-1 | Na (Rattus norvegicus [21]): 0.215 m equiv 6hr-1 100g-1 | T/C (Rattus norvegicus [22]): 2.47 | T/C (Rattus norvegicus [23]): 1.27 | UN (Rattus norvegicus [24]): 131.7 mg/dL | inhibition in vivo at 1 mg/kg (Rattus norvegicus [25]): 27% | T/C (Rattus norvegicus [9]): 2.33 | Cr (Rattus norvegicus [26]): 3.75 mg/dL | Na+/K+ (Rattus norvegicus [10]): 1.27 | T/C (Rattus norvegicus [27]): 1.87 | T/C (Rattus norvegicus [28]): 1.24 | Na (Rattus norvegicus [29]): 0.316 m equiv 6hr-1 100g-1 | Na+/K+ (Rattus norvegicus [30]): 1.76 | Urine volume (Rattus norvegicus [31]): 1.36 ml 6hr-1 100g-1 | inhibition in vivo at 1 mg/kg (Rattus norvegicus [32]): 31% | T/C (Rattus norvegicus [33]): 1.98 | Na (Rattus norvegicus [34]): 0.449 m equiv 6hr-1 100g-1

Cn1c(=O)c2nc(C3CCCC3)[nH]c2n(C)c1=O [8-CYCLOPENTYLTHEOPHYLLINE]
Urine volume (Rattus norvegicus [35]): 1.06 ml 6hr-1 100g-1 | inhibition in vivo at 1 mg/kg (Rattus norvegicus [36]): 54% | T/C (Rattus norvegicus [2]): 1.23 | Na+/K+ (Rattus norvegicus [3]): 1.12 | inhibition in vivo at 0.1 mg/kg (Rattus norvegicus [37]): 1% | Na (Rattus norvegicus [38]): 0.217 m equiv 6hr-1 100g-1 | T/C (Rattus norvegicus [9]): 1.25 | UN (Rattus norvegicus [39]): 168.7 mg/dL | Cr (Rattus norvegicus [40]): 2.22 mg/dL | inhibition in vivo at 1 mg/kg (Rattus norvegicus [41]): 53% | Ki (Adenosine receptor A1): 95 nM | T/C (Rattus norvegicus [27]): 1.64 | inhibition in vivo at 0.1 mg/kg (Rattus norvegicus [42]): -5% | Cr (Rattus norvegicus [43]): 7.26 mg/dL | T/C (Rattus norvegicus [33]): 1.82 | UN (Rattus norvegicus [44]): 63.6 mg/dL
